Read-outs that look alike come from different tables or passages of the source.
Tested on: Xenopus embryos
Conditions: for Type of edema Periocular: * = causing bulging eyes, # = bilateral, causing narrow-set eyes; for Type of edema Ventral: ‡ = edemas also detected in the gut; for Lethality: — = no stage of lethality given
Procedure: 10-μl aliquots of the chemicals were transferred from the mother plates with a liquid handling robot (Aquarius, Tecan) into 96-well tissue culture plates to generate diluted stock plates (2 mM in DMSO; 50 μl final volume). […] Once embryos reached stage 31 (37 hpf), 10-μl aliquots of the diluted chemicals were added to the wells. […] Negative control wells contained embryos in screening medium and 0.1×MMR only. Embryos were treated with the chemicals in a humidified incubator at 23° C. over a timeframe of 4 days. Embryos were manually scored for the presence of edema or other morphological phenotypes using a teaching dissecting microscope (SV6; Carl Zeiss). Two investigators performed separately the scoring daily at stages 39 (56 hpf), 41 (76 hpf), 45 (98 hpf), and 47 (120 hpf). Dead embryos were removed and 100 μl of water was added daily to each well to compensate for fluid evaporation. […] For imaging at the end of the experiments. Xenopus tadpoles were anesthetized with 0.05% tricaine (Sigma #A5040) in 0.1×MMR. Images were captured using a stereomicroscope (SteREO Lumar V12; Carl Zeiss) equipped with a digital camera (AxioCam Color; Carl Zeiss).
Xenopus late tailbud embryos at stage 31 (37 hpf) were selected for compound treatment. […] Embryos were arrayed into 48-well dishes (five per well) and treated with test compounds at a concentration of 20 μM in the presence of 1% DMSO. […] All 48-well dishes also contained replicates of negative controls (1% DMSO). Embryos were monitored daily over a period of four days for edema formation. In addition, drug-induced lethality and other externally visible phenotypes were scored. On average, 320 compounds were screened per week.

[1] = compounds causing cytotoxicity, 20 μM, 1% DMSO, treatment from stage 31, Nieuwkoop & Faber stage
[2] = compounds causing lethality, 20 μM, 1% DMSO, treatment from stage 31, Nieuwkoop & Faber stage
[3] = onset of edema, 20 μM, 1% DMSO, treatment from stage 31, Nieuwkoop & Faber stage
[4] = compounds causing pigmentation defects, 20 μM, scored to stage 47
[5] = onset of pigmentation defects, 20 μM, 1% DMSO
[6] = compounds causing other phenotypic defects, 20 μM, scored to stage 47
[7] = onset of other phenotypic defects, 20 μM, 1% DMSO
[8] = compounds causing edema, 20 μM, 1% DMSO, treatment from stage 31, scored to stage 47

`O=c1c2ccccc2[se]n1-c1ccccc1` [Ebselen, 2-Phenyl-1,2-benzisoselenazol-3(2H)-one] was tested, and the “Lethality (NF)” value [1] was 32 NF.
For `O=C(c1cc(O)c(O)c([N+](=O)[O-])c1)c1ccccc1F` [Ro 41-0960, 2′-Fluoro-3,4-dihydroxy-5-nitrobenzophenone], the “Lethality (NF)” value [1] was 33/34.
For `CCCCCCCCCCCCCCCCCCOCC(COP(=O)([O-])OCC[N+](C)(C)C)OC` (stereo not drawn) [ET-18-OCH3, 3,5,9-Trioxa-4-phosphaheptacosan-1-aminium], the “Lethality (NF)” value [2] was 37/38.
`CC(C)(C)c1cc(C=C(C#N)C#N)cc(C(C)(C)C)c1O` [Tyrphostin A9, [[3,5-bis(1,1-Dimethylethyl)-4-hydroxyphenyl]methylene]-propanedinitrile] was tested, and the “Lethality (NF)” value [1] was 32 NF.
`CC1(C(=O)O)C2CCC(O2)C1(C)C(=O)O` (stereo not drawn) [Cantharidic Acid] was tested, and the “Lethality (NF)” value [1] was 32 NF.
With `COc1cc2nc(N3CCN(C(=O)OCc4ccccc4)[C@H](C(=O)NC(C)(C)C)C3)nc(N)c2cc1OC` [L-765,314, (2S)-4-(4-Amino-6,7-dimethoxy-2-quinazolinyl)-2-[[(1,1-Dimethylethyl)amino]carbonyl]-1-piperazinecarboxylic acid, phenylmethyl ester] the “Type of edema Periocular” value (embryonic stage) was 41/42 #, the “Type of edema Ventral” value (embryonic stage) was 45 embryonic stages according to Nieuwkoop and Faber (NF) and the “Onset (NF)” value [3] was 41/42.
`CC(=O)c1c(O)c(C)c(O)c(Cc2c(O)c3c(c(C(=O)/C=C/c4ccccc4)c2O)OC(C)(C)C=C3)c1O` [Rottlerin] was tested, and the “Lethality (NF)” value [1] was 32 NF.
In the case of `Br.C=CCN1CCc2cccc3c2[C@H]1Cc1ccc(O)c(O)c1-3` [R(-)-N-Allylnorapomorphine hydrobromide], the “Lethality (NF)” value [4] is reported as 40 NF and the “Onset (NF)” value [5] is reported as 33/34.
With `C[N+](C)(C)CCC(=O)c1cccc2ccccc12.[I-]` [2-(alpha-Naphthoyl)ethyltrimethylammonium iodide] the “Lethality (NF)” value [1] was 32 NF.
With `S=C(Nc1ccccc1)Nc1nccs1` [1-Phenyl-3-(2-thiazolyl)-2-thiourea] the “Onset (NF)” value [5] was 33/34.
In the case of `CCNC(=O)N1CCN(CCCC(c2ccc(F)cc2)c2ccc(F)cc2)CC1.Cl` [Amperozide hydrochloride, 4-[4,4-bis(4-Fluorophenyl)butyl]-N-ethyl-1-piperazinecarboxamide hydrochloride], the “Type of edema Pericordial” value (embryonic stage) is reported as 41/42, the “Type of edema Periocular” value (embryonic stage) is reported as 45 embryonic stages according to Nieuwkoop and Faber (NF) and the “Type of edema Ventral” value (embryonic stage) is reported as 41/42. The “Onset (NF)” value [3] was 41/42.
For `c1ccc2c(c1)[I+]c1ccccc1-2` [Diphenyleneiodonium chloride, [1,1′-Biphenyl]-2,2′-diyiodonium chloride], the “Lethality (NF)” value (Xenopus laevis, in vivo) was 42 NF.
With `Cl.Cl.Fc1ccc(C(OCCN2CCN(CCCc3ccccc3)CC2)c2ccc(F)cc2)cc1` [GBR-12909 dihydrochloride, 1-[2-[bis(4-Fluorophenyl)methoxy]ethyl]-4-[3-phenylpropyl]piperazine dihydrochloride] the “Type of edema Pronephric” value (embryonic stage) was 45 embryonic stages according to Nieuwkoop and Faber (NF), the “Type of edema Periocular” value (embryonic stage) was 45 embryonic stages according to Nieuwkoop and Faber (NF) and the “Type of edema Ventral” value (embryonic stage) was 45 embryonic stages according to Nieuwkoop and Faber (NF).
With `Cc1nc2sccn2c(=O)c1CCN1CCC(=C(c2ccccc2)c2ccc(F)cc2)CC1` [Diacylglycerol kinase inhibitor I] the “Type of edema Periocular” value (embryonic stage) was 45 embryonic stages according to Nieuwkoop and Faber (NF), the “Type of edema Ventral” value (embryonic stage) was 45 embryonic stages according to Nieuwkoop and Faber (NF) and the “Onset (NF)” value [3] was 45 NF.
In the case of `CC[C@@]1(O)C(=O)OCc2c1cc1n(c2=O)Cc2cc3ccccc3nc2-1` [(S)-(+)-Camptothecin], the “Lethality (NF)” value [6] is reported as 41/42 and the “Onset (NF)” value [7] is reported as 39 NF.
With `S=C(OC1CC2CC1C1CCCC21)[S][K]` [D-609 potassium, Carbonodithioic acid, O-(octahydro-4,7-methano-1H-inden-5-yl) ester potassium] the “Lethality (NF)” value [1] was 33/34.
In the case of `CC#CCOC(=O)c1c(C)nc2sc3c(c2c1N)CCC(O)C3` (stereo not drawn) [SB 205384, 4-Amino-7-hydroxy-2-methyl-5,6,7,8-tetrahydrobenzo[b]thieno[2,3-b]pyridine-3-carboxylic acid but-2-ynyl ester], the “Lethality (NF)” value [6] is reported as 46 NF and the “Onset (NF)” value [7] is reported as 40 NF.
`C#C[C@]1(O)CC[C@H]2[C@@H]3CCC4=Cc5nc6nc7ccccc7n6cc5C[C@]4(C)[C@H]3CC[C@@]21C` [WIN 62,577, 17-beta-Hydroxy-17-alpha-ethynyl-delta-4-androstano(3,2-b)pyrimido(1,2-a)benzimidazole] was tested, and the “Lethality (NF)” value [4] was 42 NF and the “Onset (NF)” value [5] was 33/34.
`O=C1Cc2c([nH]c3ccc(Br)cc23)-c2ccccc2N1` [Kenpaullone] was tested, and the “Type of edema Periocular” value (embryonic stage) was 45 embryonic stages according to Nieuwkoop and Faber (NF) and the “Type of edema Ventral” value (embryonic stage) was 45 embryonic stages according to Nieuwkoop and Faber (NF).
For `COC[C@H]1OC(=O)c2coc3c2[C@@]1(C)C1=C(C3=O)[C@@H]2CCC(=O)[C@@]2(C)C[C@H]1OC(C)=O` [Wortmannin from Penicillium funiculosum, Wortmannin], the “Lethality (NF)” value [1] was 33/34.
In the case of `O=c1[nH]c2ccccc2c2ccccc12` [6(5H-Phenanthridinone, 6(5H)-Phenanthridinone], the “Lethality (NF)” value [8] is reported as 47 NF, the “Type of edema Pericordial” value (embryonic stage) is reported as 45 embryonic stages according to Nieuwkoop and Faber (NF) and the “Type of edema Periocular” value (embryonic stage) is reported as 45 embryonic stages according to Nieuwkoop and Faber (NF). The Lethality (embryonic stage) was 47 embryonic stages according to Nieuwkoop and Faber (NF) and the “Type of edema Ventral” value (embryonic stage) was 45 embryonic stages according to Nieuwkoop and Faber (NF).
For `O=c1c2ccccc2[nH]c(=S)n1CCN1CCC(=C(c2ccc(F)cc2)c2ccc(F)cc2)CC1` [Diacylglycerol Kinase Inhibitor II], the “Type of edema Pronephric” value (embryonic stage) was 45 embryonic stages according to Nieuwkoop and Faber (NF), the “Type of edema Periocular” value (embryonic stage) was 46 embryonic stages according to Nieuwkoop and Faber (NF) and the “Type of edema Ventral” value (embryonic stage) was 41/42. The “Onset (NF)” value [3] was 41/42.
For `CCOC(=O)C1=C(C)NC(C)=C(C(=O)OC)C1c1cccc([N+](=O)[O-])c1` (stereo not drawn) [Nitrendipine, 1,4-Dihydro-2,6-dimethyl-4-(3-nitrophenyl)-3,5-pyridinecarboxylic acid ethyl methyl ester], the “Lethality (NF)” value [2] was 45 NF.
With `Cl.O=C(CCCN1CCC2(CC1)C(=O)N(CCc1ccc(N=C=S)cc1)CN2c1ccccc1)c1ccc(F)cc1` [N-(p-Isothiocyanatophenethyl)spiperone hydrochloride] the “Type of edema Periocular” value (embryonic stage) was 45 embryonic stages according to Nieuwkoop and Faber (NF), the “Type of edema Ventral” value (embryonic stage) was 45 embryonic stages according to Nieuwkoop and Faber (NF) and the “Onset (NF)” value [3] was 45 NF.
`C=C[C@@]1(C)CC(=O)[C@]2(O)[C@@]3(C)[C@@H](O)CCC(C)(C)[C@@H]3[C@H](O)[C@H](OC(C)=O)[C@@]2(C)O1` [Forskolin] was tested, and the “Lethality (NF)” value [8] was 41/42, the “Type of edema Pericordial” value (embryonic stage) was 39 embryonic stages according to Nieuwkoop and Faber (NF) and the “Type of edema Proctodeal” value (embryonic stage) was 39 embryonic stages according to Nieuwkoop and Faber (NF). The Lethality (embryonic stage) was 41/42, the “Type of edema Ventral” value (embryonic stage) was 39 embryonic stages according to Nieuwkoop and Faber (NF) and the “Onset (NF)” value [3] was 39/40.
`CCCCCCCCCCCCCC(=O)O[C@@H]1[C@@H](C)[C@@]2(O)[C@@H](C=C(CO)C[C@]3(O)C(=O)C(C)=C[C@@H]23)[C@@H]2C(C)(C)[C@]12OC(C)=O` [Phorbol 12-myristate 13-acetate] was tested, and the “Lethality (NF)” value [1] was 32 NF.
For `COC(=O)c1c(C)[nH]c(C)c1C(=O)c1ccccc1Cc1ccccc1` [FPL 64176, 2,5-Dimethyl-4-[2-(phenylmethyl)benzoyl]-1H-pyrrole-3-carboxylic acid methyl ester], the “Lethality (NF)” value [2] was 40 NF.
In the case of `CCCCCCCC/C=C\CCCCCCCC(=O)NCCc1ccc(O)c(O)c1` [N-Oleoyldopamine], the “Lethality (NF)” value [2] is reported as 41 NF.
`O=C(O)CCCCC1CCSS1` (racemic) [(±)-alpha-Lipoic Acid] was tested, and the “Type of edema Pericordial” value (embryonic stage) was 39 embryonic stages according to Nieuwkoop and Faber (NF) and the “Type of edema Pronephric” value (embryonic stage) was 42 embryonic stages according to Nieuwkoop and Faber (NF).
For `C[C@]12CC[C@@H]3c4ccc(O)cc4CC[C@H]3[C@@H]1CC[C@@H]2O` [beta-Estradiol], the “Type of edema Periocular” value (embryonic stage) was 42 # embryonic stages according to Nieuwkoop and Faber (NF) and the “Onset (NF)” value [3] was 42 NF.
For `COC(=O)C1=C(C)NC(C)=C(C(=O)OC)C1c1ccccc1[N+](=O)[O-]` [Nifedipine], the “Type of edema Pericordial” value (embryonic stage) was 41/42, the “Type of edema Periocular” value (embryonic stage) was 41/42 and the “Type of edema Ventral” value (embryonic stage) was 45 embryonic stages according to Nieuwkoop and Faber (NF). For the same compound, the “Onset (NF)” value [3] was 41/42.
With `C[C@@]12C(=O)OC(=O)[C@]1(C)[C@H]1CC[C@@H]2O1` [Cantharidin] the “Lethality (NF)” value [1] was 32 NF.
In the case of `O=C1NCN(c2ccccc2)C12CCN(CCCC(c1ccc(F)cc1)c1ccc(F)cc1)CC2` [Fluspirilene], the “Lethality (NF)” value [1] is reported as 32 NF.

Reference: patent US9945845B2, “Methods of screening using amphibians” (priority 2009, dated 2018)
